B1: Ac-EeFdDLWKLLPEN-NH2 (P53-E18-D20) (peptide)
peptide: Ac-EEFDDLWKLLPEN-NH2
notes: also called double phosphomimetic mutant

Tests used:
[1] = target: T1, human MDM2 (residues 2–125) (Homo sapiens, UniProt Q00987); experiment: Stopped-flow fluorescence kinetics of p53-peptide binding to MDM2; conditions: stopped-flow Trp fluorescence, 15 °C, 50 mM Tris-HCl pH 8.0, 250 mM NaCl, 0.5 mM TCEP, peptide 0.125 μM, ± fitting error; for kon: MDM2 1–3 μM, pseudo-first order, slope, read-out: kon 10^6; for koff: y-axis intercept of pseudo-first-order plot
T1 construct: human MDM2 (residues 2–125); made in house; host or cells: E. coli BL21 (DE3)
T1 sequence (Q00987 2-125): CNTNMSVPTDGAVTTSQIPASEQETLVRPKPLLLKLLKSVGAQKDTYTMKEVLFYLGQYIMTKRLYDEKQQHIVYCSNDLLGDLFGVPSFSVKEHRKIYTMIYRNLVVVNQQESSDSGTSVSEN
Procedure: (§1) Expression and purification of human MDM2 (residues 2–125) was carried out as described[23] in BL21 (DE3) cells. […] Protein concentration was determined from the absorbance of its seven Tyr residues.
The kinetics of the MDM2/p53-peptide interaction was measured at 15 °C using an Applied Photophysics stopped-flow fluorimeter in the same buffer as that used in the equilibrium fluorescence experiments. The experimental procedure has been described previously. Association kinetics was measured under pseudo-first order conditions, by keeping the MDM2 concentration in excess of that of the peptide. […] Excitation wavelength was 280 nm with a cut-off filter of 315 nm on the emission side. The slit widths were 10 nm for excitation and emission.
At each MDM2 concentration a minimum of six traces were acquired; and the fitting in all cases for all peptides was carried out with the averaging of at least four traces. The averaged trace was always fitted to a single exponential function, which yielded, kobs. Fitting to a single exponential curve was carried out by using Kaleidagraph (Synergy Software); reported errors in kobs are from the exponential fitting. The dissociation (koff) and association (kon) rate constants were obtained from the straight line: kobs=kon×[MDM2]+koff.
Errors in both rates were from the linear fitting; the errors were always larger for koff due to the extrapolation to the y-axis intercept.

[2] = target: T1, human MDM2 (residues 2–125); experiment: Equilibrium fluorescence titration of p53-peptides and MDM2; format: binding; conditions: fluorescence at 315 nm, excitation 280 nm; MDM2 4 μM, peptide 0–10 μM; 15 °C, pH 8.0 Tris-HCl, 250 mM NaCl, 0.5 mM TCEP; overnight equilibration; titration repeated twice; read-out: Kd from fluorescence titrations
Procedure: as §1

[3] = Far-UV CD of isolated peptides in aqueous solution (helicity); format: physicochemical; conditions: 5 °C, 50 mM phosphate pH 6.8; for molar ellipticity at 222 nm, [Θ]222: far-UV CD; for % Helix in water ([Θ]222): from molar ellipticity at 222 nm assuming 100% helix = −31500 deg cm^2 dmol^−1
Procedure: Spectra were acquired on a Jasco J815 spectropolarimeter (Jasco, Japan) interfaced with a Peltier unit. The instrument was periodically calibrated with (+) 10-camphorsulphonic acid. Far-UV measurements (in aqueous or TFE solutions) were performed in 0.1-cm-pathlength quartz cells (Hellma), with a response time of 2 s, a band width of 1 nm, data were collected every 0.2 nm, and a scan velocity of 50 nm/min (or 20 nm/min). […] In all peptides, two concentrations (10 μM and 70 μM) in aqueous solutions (50 mM sodium phosphate buffer, pH 6.8 […]) were used to determine whether either the shapes or the intensities of the spectra were concentration-dependent. […] In all cases (aqueous solution or TFE titrations), the corresponding blank solutions (containing only buffer, or buffer and the corresponding amount of TFE) were subtracted from the spectra.
(§2) For the TFE titrations, a peptide concentration of 40 μM was used. The samples were prepared the day before and left overnight at 5 °C to reach equilibrium. The experiments in aqueous solution were acquired at 5 °C, in 50 mM sodium phosphate buffer, pH 6.8. Raw ellipticity was converted to molar ellipiticity, [Θ], from which the percentage of helical populations was determined. Co-solvent concentrations were indicated in percentage of volume. […] Fitting of the titration curves, obtained by observation of the molar ellipticity at 222 nm as the TFE concentration was increased, was carried out with Kaleidagraph (Synergy software).

[4] = TFE titrations monitored by CD (helical population); format: physicochemical; conditions: 5 °C, 50 mM phosphate pH 6.8, peptide 40 μM; for [TFE]1/2 (midpoint of TFE titration) / m (m-value of TFE titration): CD at 222 nm, two-state fit, ± fitting error; for % Helix in water (from ΔG in TFE titrations): from ΔG = [TFE]1/2 × m, for 1% values the error was 10%
Procedure: Unlike the above programs, which make assumptions about how the ellipticity signal relates to secondary structure content, a TFE titration allows the determination of helical content derived from the free-energy change for the equilibrium between folded (in TFE) and unfolded peptide, without any such assumptions.
as §2

[5] = target: T1, human MDM2 (residues 2–125); experiment: Isothermal titration calorimetry of p53-peptide binding to MDM2; conditions: ITC, 15 °C, 50 mM Tris-HCl pH 8.0, 250 mM NaCl, 0.5 mM TCEP; for ΔH of binding: repeated twice
Procedure: Protein concentration was determined from the absorbance of its seven Tyr residues.
Peptide binding to MDM2 was measured by using an Auto-iTC200 (Malvern Instruments, Malvern UK), as described[24],[37]. Data acquisition was carried out with a reference power of 10 µcal/s, initial delay of 60 s, spacing between injections of 150 s. In a typical ITC experiment, the p53 peptide was loaded into a 40 μl syringe and the protein was placed into the sample cell. The sequence of injections consisted of one 0.5 μl injection followed by 19 injections of 2 μl each. Control experiments loading peptide into buffer solution were also carried out for each peptide. Experiments were performed with freshly prepared protein solutions, at 15 °C in the same buffer used in fluorescence experiments. ITC experiments were performed at 15 °C rather than 25 °C to avoid aggregation of MDM2.
Each peak was integrated using NITPIC software. The areas of the peaks are related to the heat exchanged upon binding and/or dilution. This heat was corrected of the heat of dilution (i.e., the average heat of the injections after the equilibrium has reached the saturation). Titration with each peptide was repeated twice.

[6] = target: T2, human MDM2 (residues 2–125) (human, UniProt Q00987 2-125); experiment: ITC; p53 peptide in the syringe titrated into MDM2 in the cell; Auto-iTC200; 15 °C; 50 mM Tris-HCl pH 8.0, 250 mM NaCl, 0.5 mM TCEP; conditions: both partners purified
T2 construct: MDM2 (murine double minute 2), human, N-terminal domain, residues 2-125; no tag is named; also called N-terminal domain of MDM2
T2 sequence (Q00987 2-125): as above

[7] = target: T2, human MDM2 (residues 2–125); experiment: other fluorescence titration; peptide 0–10 μM added to 4 μM MDM2; fluorescence at 315 nm after excitation at 280 nm; 15 °C; 50 mM Tris-HCl pH 8.0, 250 mM NaCl, 0.5 mM TCEP; samples left overnight at 5 °C; conditions: both partners purified
[8] = target: T2, human MDM2 (residues 2–125); experiment: stopped-flow fluorescence; pseudo-first order, peptide 0.125 μM final, MDM2 in excess (typically 1 μM to 3 μM); Trp23 fluorescence, excitation 280 nm, 315 nm cut-off; 15 °C; 50 mM Tris-HCl pH 8.0, 250 mM NaCl, 0.5 mM TCEP; Kd as koff/kon assuming a two-state reaction; conditions: both partners purified

Molecule	kon [1]	koff [1]	Kd [2]	molar ellipticity at 222 nm, [Θ]222 [3]	% Helix in water ([Θ]222) [3]	[TFE]1/2 (midpoint of TFE titration) [4]	m (m-value of TFE titration) [4]	% Helix in water (from ΔG in TFE titrations) [4]	TΔS of binding [5]	ΔH of binding ([5]; peptide titrated into MDM2)	Kd ([5]; peptide titrated into MDM2, read-out: Log KA (converted))	Kd [6]	Log KA [6]	dH [6]	Kd [7]	Kd [8]
CC(=O)N[C@@H](CCC(=O)O)C(=O)N[C@H](C(=O)N[C@@H](Cc1ccccc1)C(=O)N[C@@H](CCC(=O)O)C(=O)N[C@@H](CC(=O)O)C(=O)N[C@@H](CC(C)C)C(=O)N[C@@H](Cc1c[nH]c2ccccc12)C(=O)N[C@@H](CCCCN)C(=O)N[C@@H](CC(C)C)C(=O)N[C@@H](CC(C)C)C(=O)N1CCC[C@H]1C(=O)N[C@@H](CCC(=O)O)C(=O)N[C@@H](CC(N)=O)C(N)=O)[C@@H](C)O [P53-E20]	9e+06 ± 2e+06 M⁻¹ s⁻¹	8 ± 5 s⁻¹	0.7 ± 0.1 µM	−2911 deg cm^2 dmol^−1	9.2%	25 ± 2 % (vol:vol)	231 ± 141 cal mol^−1(%)^−1	1%								
Ac-EEFDDLWKLLPEN-NH2 [P53-E18-D20]	4e+06 ± 2e+06 M⁻¹ s⁻¹	18 ± 6 s⁻¹		−2100 deg cm^2 dmol^−1	6.6%	15 ± 1 % (vol:vol)	135 ± 18 cal mol^−1(%)^−1	3 ± 1%	-2.64 kcal/mol	-8.80 kcal/mol						
Ac-EEFEDLWKLLPEN-NH2 [P53-E18-E20]	2.7e+06 ± 900000 M⁻¹ s⁻¹	17 ± 2 s⁻¹		−2757 deg cm^2 dmol^−1	8.7%	24.5 ± 0.9 % (vol:vol)	420 ± 390 cal mol^−1(%)^−1	1%	-2.16 kcal/mol	-9.12 kcal/mol	5.01 µM					
Ac-ETFDDLWKLLPEN-NH2 [Ac-ETFdDLWKLLPEN-NH2 (P53-D20)]												5.7 µM	5.24	-10.2 kcal/mol	1.5 ± 0.4 µM	
Ac-ETFEDLWKLLPEN-NH2 [Ac-ETFeDLWKLLPEN-NH2 (P53-E20)]																0.9 ± 0.6 µM
B1												20.4 µM	4.69	-8.8 kcal/mol	8.3 ± 4.9 µM	4 ± 3 µM
Ac-EEFEDLWKLLPEN-NH2 [Ac-EeFeDLWKLLPEN-NH2 (P53-E18-E20)]												5 µM	5.3	-9.12 kcal/mol		6 ± 2 µM
Ac-EEFSDLWKLLPEN-NH2 [Ac-EeFSDLWKLLPEN-NH2 (P53-E18)]												7.1 µM	5.15	-7.02 kcal/mol	2.3 ± 0.6 µM	4.2 ± 0.9 µM

— article PMC6345774, “Kinetic and thermodynamic effects of phosphorylation on p53 binding to MDM2” (Scientific Reports, 2019)
